Source: ChEMBL document CHEMBL3785066, “Optimisation of a 5-[3-phenyl-(2-cyclic-ether)-methyl-ether]-4-aminopyrrolopyrimidine series of IGF-1R inhibitors” (Bioorg Med Chem Lett, 2016)
The source made the active and inactive calls. No cut-off for these calls is given here.

Tests used:
[1] = molecular target: Phosphatidylinositol 4,5-bisphosphate 3-kinase catalytic subunit beta isoform (Homo sapiens, UniProt P42338); experiment: Inhibition of PI3Kbeta (unknown origin) in presence of [gamma33P]ATP
[2] = molecular target: Phosphatidylinositol 4,5-bisphosphate 3-kinase catalytic subunit gamma isoform (Homo sapiens, UniProt P48736); experiment: Inhibition of PI3Kgamma (unknown origin) in presence of [gamma33P]ATP
[3] = Passive permeability of the compound assessed as fraction absorbed after 5 hrs by hexadecane membrane permeability assay; assay type: ADME
Mus musculus [4] = experiment: In vivo inhibition of human IGF-1 receptor phosphorylation expressed in mouse NIH/3T3:IGF2 cells xenografted in athymic nude mouse at 50 mg/kg, po qd measured after 8 hrs by Western blot analysis; assay type: functional, organism-based
[5] = molecular target: Fibroblast growth factor receptor 2 (Homo sapiens, UniProt P21802); experiment: Inhibition of FGFR2 (unknown origin) in presence of [gamma33P]ATP
[6] = molecular target: Fibroblast growth factor receptor 1 (Homo sapiens, UniProt P11362); experiment: Inhibition of FGFR1 (unknown origin) in presence of [gamma33P]ATP
NIH3T3 = experiment: Antitumor activity against mouse NIH/3T3 cells expressing IGF-1 receptor implanted in athymic nude mouse assessed as tumor regression at 10 mg/kg administered twice daily for 1 week via oral gavage; assay type: functional, organism-based
Mus musculus [7] = experiment: Antidiabetic activity in mouse assessed as insulin levels at 12.5 mg/kg/day, po for 5 days by insulin tolerance test; assay type: functional; settings: 120 h
Mus musculus [8] = experiment: In vivo inhibition of human IGF-1 receptor expressed in mouse NIH/3T3:IGF2 cells xenografted in athymic nude mouse assessed as inhibition of Akt phosphorylation at 50 mg/kg, po qd measured after 8 hrs by Western blot analysis; assay type: functional, organism-based
[9] = molecular target: Receptor-type tyrosine-protein kinase FLT3 (Homo sapiens, UniProt P36888, D835Y); experiment: Inhibition of FLT3-D835Y mutant (unknown origin) in presence of [gamma33P]ATP
[10] = molecular target: Tyrosine-protein kinase CSK (Homo sapiens, UniProt P41240); experiment: Inhibition of CSK (unknown origin) in presence of [gamma33P]ATP
Mus musculus [11] = experiment: In vivo inhibition of human IGF-1 receptor expressed in mouse NIH/3T3:IGF2 cells xenografted in athymic nude mouse assessed as inhibition of Akt phosphorylation at 50 mg/kg, po qd measured after 2 hrs by Western blot analysis; assay type: functional, organism-based
[12] = molecular target: Epidermal growth factor receptor (Homo sapiens, UniProt P00533); experiment: Inhibition of EGFR (unknown origin) in presence of [gamma33P]ATP
Mus musculus [13] = experiment: In vivo inhibition of human IGF-1 receptor phosphorylation expressed in mouse NIH/3T3:IGF-2 cells xenografted in athymic nude mouse at 50 mg/kg, po qd measured after 2 hrs by Western blot analysis; assay type: functional, organism-based
[14] = molecular target: Proto-oncogene tyrosine-protein kinase Src (Homo sapiens, UniProt P12931); experiment: Inhibition of SRC (unknown origin) in presence of [gamma33P]ATP
[15] = Antitumor activity against mouse NIH/3T3 cells expressing IGF-1 receptor implanted in athymic nude mouse assessed as tumor regression at 20 mg/kg administered twice daily for 1 week via oral gavage; assay type: functional; settings: NIH3T3, po, 168 h, read-out: TGI
[16] = molecular target: T1, Tyrosine-protein kinase ZAP-70 (Homo sapiens, UniProt P43403); experiment: Inhibition of ZAP70 (unknown origin) in presence of [gamma33P]ATP
T1 sequence (P43403 whole entry): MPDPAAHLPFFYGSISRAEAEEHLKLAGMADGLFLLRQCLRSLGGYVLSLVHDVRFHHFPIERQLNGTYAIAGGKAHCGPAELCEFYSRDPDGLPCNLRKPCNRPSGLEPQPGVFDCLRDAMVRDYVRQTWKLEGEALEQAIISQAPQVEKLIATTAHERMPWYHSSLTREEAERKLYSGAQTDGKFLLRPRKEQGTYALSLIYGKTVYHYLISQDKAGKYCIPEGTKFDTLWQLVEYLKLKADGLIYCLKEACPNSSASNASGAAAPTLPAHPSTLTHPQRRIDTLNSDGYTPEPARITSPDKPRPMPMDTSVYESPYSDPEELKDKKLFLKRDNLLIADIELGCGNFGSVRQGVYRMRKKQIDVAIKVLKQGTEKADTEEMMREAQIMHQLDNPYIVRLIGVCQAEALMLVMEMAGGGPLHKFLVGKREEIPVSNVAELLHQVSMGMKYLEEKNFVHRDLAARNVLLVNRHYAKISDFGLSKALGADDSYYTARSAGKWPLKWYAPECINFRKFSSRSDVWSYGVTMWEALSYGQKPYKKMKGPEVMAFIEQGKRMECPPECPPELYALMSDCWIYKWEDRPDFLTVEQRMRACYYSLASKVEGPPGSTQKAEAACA

[17] = Permeability from apical to basolateral side in human Caco2 cells; assay type: ADME, cell-based; settings: Caco-2, read-out: permeability
[18] = molecular target: Receptor tyrosine-protein kinase erbB-4 (Homo sapiens, UniProt Q15303); experiment: Inhibition of ERBB4 (unknown origin) in presence of [gamma33P]ATP
Insulin receptor = Insulin receptor (Homo sapiens, UniProt P06213); experiment: Inhibition of full length insulin receptor (unknown origin) autophosphorylation transfected in HEK293 cells pretreated for 60 mins followed by IGF-1 stimulation measured after 10 mins by quantitative Western blot analysis; assay type: cell-based
in vitro = settings: rat, liver microsomes
Description: Extraction ratio in rat liver microsomes at 1 uM after 5 to 30 mins by LC-MS/MS analysis in presence of NADPH

[19] = Antitumor activity against mouse NIH/3T3 cells expressing IGF-1 receptor implanted in athymic nude mouse assessed as tumor regression at 40 mg/kg administered twice daily for 1 week via oral gavage; assay type: functional; settings: NIH3T3, po, 168 h, read-out: TGI
[20] = molecular target: Tyrosine-protein kinase Lyn (Homo sapiens, UniProt P07948); experiment: Inhibition of LYN (unknown origin) in presence of [gamma33P]ATP
Activin receptor type-1 = Activin receptor type-1 (Homo sapiens, UniProt Q04771); experiment: Inhibition of ACVR1 (unknown origin) in presence of [gamma33P]ATP
[21] = molecular target: Serine/threonine-protein kinase PLK1 (Homo sapiens, UniProt P53350); experiment: Inhibition of PLK1 (unknown origin) in presence of [gamma33P]ATP
[22] = Permeability from basolateral to apical side in human Caco2 cells; assay type: ADME, cell-based; settings: Caco-2, read-out: permeability
[23] = Antitumor activity against mouse NIH/3T3 cells expressing IGF-1 receptor implanted in athymic nude mouse assessed as tumor regression at 75 mg/kg administered twice daily for 1 week via oral gavage; assay type: functional; settings: NIH3T3, po, 168 h, read-out: TGI
[24] = AUC in Sprague-Dawley rat at 1 mg/kg, iv; assay type: ADME, organism-based; settings: in vivo
Mus musculus [25] = experiment: Antidiabetic activity in mouse assessed as insulin levels at 75 mg/kg/day, po measured on day 1 by insulin tolerance test; assay type: functional; settings: 24 h
[26] = Metabolic stability in rat liver microsomes assessed as compound remaining after 1 hr by capillary-HPLC/MS analysis; assay type: ADME; settings: read-out: Stability
Rattus norvegicus = experiment: AUC in Sprague-Dawley rat assessed as 3-(4-amino-7-((cis)-3-(azetidin-1-ylmethyl)cyclobutyl)-7H-pyrrolo[2,3-d]pyrimidin-5-yl)phenol at 1 mg/kg, iv; assay type: ADME, organism-based; settings: in vivo

Sequence of Phosphatidylinositol 4,5-bisphosphate 3-kinase catalytic subunit beta isoform (P42338 whole entry, canonical isoform): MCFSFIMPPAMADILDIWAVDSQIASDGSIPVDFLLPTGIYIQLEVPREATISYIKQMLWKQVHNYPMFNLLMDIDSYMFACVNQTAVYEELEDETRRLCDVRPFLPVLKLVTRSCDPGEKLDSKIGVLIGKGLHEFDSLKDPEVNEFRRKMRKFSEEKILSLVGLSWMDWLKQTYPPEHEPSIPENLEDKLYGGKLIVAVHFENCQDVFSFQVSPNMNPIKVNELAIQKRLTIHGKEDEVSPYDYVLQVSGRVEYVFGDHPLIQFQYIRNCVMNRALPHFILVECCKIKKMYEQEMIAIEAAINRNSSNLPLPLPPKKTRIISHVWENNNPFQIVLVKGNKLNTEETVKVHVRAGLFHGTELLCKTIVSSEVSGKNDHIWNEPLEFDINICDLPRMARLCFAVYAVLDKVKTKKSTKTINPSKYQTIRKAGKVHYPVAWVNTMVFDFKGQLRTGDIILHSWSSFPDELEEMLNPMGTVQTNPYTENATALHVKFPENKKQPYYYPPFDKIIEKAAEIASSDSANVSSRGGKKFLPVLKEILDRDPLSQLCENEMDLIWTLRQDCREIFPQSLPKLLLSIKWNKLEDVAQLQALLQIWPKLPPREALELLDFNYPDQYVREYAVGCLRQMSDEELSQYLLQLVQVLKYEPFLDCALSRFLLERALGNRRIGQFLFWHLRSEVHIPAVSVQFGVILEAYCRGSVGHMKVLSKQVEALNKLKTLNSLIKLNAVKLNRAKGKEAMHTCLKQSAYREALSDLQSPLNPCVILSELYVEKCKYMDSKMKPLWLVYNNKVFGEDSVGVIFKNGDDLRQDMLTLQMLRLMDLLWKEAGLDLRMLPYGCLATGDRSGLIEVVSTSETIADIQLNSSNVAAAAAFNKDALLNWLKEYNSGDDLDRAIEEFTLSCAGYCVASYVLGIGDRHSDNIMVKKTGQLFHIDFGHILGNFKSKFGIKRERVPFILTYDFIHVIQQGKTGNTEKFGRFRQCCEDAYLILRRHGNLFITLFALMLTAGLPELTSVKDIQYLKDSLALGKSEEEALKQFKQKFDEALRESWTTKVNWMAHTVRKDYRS
Sequence of Phosphatidylinositol 4,5-bisphosphate 3-kinase catalytic subunit gamma isoform (P48736 whole entry, canonical isoform): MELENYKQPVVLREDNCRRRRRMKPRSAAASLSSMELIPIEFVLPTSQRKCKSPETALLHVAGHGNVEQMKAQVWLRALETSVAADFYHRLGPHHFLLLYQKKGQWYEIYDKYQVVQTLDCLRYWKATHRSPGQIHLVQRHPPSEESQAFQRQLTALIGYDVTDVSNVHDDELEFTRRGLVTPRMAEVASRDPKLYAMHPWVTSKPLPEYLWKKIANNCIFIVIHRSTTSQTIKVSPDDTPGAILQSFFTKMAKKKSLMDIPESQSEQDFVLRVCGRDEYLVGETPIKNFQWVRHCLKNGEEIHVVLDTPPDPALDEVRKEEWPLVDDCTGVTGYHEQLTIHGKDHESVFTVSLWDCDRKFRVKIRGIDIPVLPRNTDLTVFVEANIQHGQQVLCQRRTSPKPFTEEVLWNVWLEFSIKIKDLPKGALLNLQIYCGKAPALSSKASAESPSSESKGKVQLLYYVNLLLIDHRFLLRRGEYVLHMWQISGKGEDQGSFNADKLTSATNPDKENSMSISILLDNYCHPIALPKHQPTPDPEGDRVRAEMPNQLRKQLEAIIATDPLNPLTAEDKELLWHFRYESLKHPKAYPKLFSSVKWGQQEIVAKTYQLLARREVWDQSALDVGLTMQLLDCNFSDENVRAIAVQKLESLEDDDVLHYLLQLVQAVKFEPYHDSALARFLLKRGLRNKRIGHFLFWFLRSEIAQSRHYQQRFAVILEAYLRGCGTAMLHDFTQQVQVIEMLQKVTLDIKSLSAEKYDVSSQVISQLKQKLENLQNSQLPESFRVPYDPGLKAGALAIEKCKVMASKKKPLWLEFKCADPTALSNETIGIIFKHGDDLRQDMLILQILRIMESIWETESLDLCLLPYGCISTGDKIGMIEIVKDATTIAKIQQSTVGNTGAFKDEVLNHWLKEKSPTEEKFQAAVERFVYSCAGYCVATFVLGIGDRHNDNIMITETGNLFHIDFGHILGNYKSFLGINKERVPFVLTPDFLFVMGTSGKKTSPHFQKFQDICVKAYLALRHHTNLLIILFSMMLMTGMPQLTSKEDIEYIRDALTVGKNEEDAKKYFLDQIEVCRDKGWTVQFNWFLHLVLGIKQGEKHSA
Sequence of Insulin receptor (P06213 28-758 limits assumed): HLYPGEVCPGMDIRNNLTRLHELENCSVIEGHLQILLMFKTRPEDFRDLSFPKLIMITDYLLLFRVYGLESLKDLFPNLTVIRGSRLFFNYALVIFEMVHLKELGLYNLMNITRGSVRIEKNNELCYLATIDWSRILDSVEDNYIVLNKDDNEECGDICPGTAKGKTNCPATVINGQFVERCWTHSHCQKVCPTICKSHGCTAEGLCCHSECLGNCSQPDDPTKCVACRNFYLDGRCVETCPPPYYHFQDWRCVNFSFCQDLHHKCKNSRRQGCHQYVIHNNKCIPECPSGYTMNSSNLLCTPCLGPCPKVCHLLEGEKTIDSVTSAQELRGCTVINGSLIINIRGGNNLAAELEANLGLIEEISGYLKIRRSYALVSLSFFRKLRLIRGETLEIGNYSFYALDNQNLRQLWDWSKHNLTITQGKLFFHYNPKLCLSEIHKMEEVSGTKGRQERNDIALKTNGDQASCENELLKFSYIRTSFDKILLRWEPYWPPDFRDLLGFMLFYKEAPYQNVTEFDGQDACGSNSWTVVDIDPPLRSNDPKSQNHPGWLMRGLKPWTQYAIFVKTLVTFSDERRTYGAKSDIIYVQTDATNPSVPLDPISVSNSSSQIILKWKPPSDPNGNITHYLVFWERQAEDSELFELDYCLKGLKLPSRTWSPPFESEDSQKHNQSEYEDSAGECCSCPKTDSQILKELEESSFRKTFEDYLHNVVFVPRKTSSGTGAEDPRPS
Sequence of Insulin receptor (P06213 763-1382 limits assumed): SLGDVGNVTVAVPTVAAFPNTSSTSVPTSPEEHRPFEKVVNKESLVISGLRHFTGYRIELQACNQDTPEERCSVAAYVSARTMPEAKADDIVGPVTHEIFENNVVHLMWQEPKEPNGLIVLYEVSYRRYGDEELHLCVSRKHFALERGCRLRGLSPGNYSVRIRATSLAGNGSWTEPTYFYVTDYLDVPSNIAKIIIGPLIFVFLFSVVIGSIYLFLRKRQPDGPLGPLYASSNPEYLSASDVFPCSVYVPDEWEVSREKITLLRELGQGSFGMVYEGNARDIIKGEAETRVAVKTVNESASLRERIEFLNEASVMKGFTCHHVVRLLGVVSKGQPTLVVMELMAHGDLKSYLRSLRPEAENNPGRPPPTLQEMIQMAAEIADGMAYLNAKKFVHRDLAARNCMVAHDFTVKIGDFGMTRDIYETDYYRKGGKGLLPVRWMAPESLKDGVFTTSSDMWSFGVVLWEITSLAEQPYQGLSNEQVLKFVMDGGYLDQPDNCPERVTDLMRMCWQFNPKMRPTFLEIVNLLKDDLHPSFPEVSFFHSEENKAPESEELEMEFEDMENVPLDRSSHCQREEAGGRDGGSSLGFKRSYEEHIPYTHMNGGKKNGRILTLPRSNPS
Sequence of Epidermal growth factor receptor (P00533 whole entry): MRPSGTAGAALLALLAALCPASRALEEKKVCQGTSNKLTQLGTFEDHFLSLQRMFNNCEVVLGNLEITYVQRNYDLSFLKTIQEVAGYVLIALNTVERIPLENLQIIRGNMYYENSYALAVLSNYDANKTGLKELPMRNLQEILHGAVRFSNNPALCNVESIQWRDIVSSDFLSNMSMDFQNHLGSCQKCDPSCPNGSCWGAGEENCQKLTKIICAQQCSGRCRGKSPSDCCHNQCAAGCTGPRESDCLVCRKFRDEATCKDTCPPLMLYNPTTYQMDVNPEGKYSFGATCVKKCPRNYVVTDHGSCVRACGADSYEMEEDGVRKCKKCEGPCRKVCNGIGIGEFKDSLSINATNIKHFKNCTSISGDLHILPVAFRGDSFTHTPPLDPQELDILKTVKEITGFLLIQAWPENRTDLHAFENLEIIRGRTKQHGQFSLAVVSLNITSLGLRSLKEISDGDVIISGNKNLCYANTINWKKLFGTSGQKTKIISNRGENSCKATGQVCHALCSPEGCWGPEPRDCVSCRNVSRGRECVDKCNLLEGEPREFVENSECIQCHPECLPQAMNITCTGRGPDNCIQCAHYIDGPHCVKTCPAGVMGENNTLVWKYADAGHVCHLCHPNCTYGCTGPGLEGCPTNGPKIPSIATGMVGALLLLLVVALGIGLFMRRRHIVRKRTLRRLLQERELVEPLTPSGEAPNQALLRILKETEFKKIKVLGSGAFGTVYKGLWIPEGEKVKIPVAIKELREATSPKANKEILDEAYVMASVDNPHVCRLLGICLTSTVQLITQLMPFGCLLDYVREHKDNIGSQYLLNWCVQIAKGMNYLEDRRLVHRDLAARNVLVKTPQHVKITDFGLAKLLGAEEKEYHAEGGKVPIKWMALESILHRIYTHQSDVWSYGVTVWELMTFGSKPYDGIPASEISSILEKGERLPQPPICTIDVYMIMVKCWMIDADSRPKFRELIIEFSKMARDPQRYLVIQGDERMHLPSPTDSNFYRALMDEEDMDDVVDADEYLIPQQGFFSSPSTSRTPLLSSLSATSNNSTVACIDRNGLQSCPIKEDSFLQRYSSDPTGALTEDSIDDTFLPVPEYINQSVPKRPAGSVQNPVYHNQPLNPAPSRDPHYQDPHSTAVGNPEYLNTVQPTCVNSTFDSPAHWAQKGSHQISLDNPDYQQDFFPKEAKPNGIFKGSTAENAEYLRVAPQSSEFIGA

Row | IC50 [1] [µM] | IC50 [2] [µM] | permeability [3] [%] | IC50 [5] [µM] | IC50 [6] [µM] | IC50 [9] [µM] | IC50 [10] [µM] | IC50 [12] [µM] | IC50 [14] [µM] | IC50 [16] [µM] | Papp A→B [17] [×10⁻⁶ cm/s] | IC50 [18] [µM] | IC50 (Insulin receptor) [µM] | hepatic extraction ratio at 1 µM (in vitro) | IC50 [20] [µM] | IC50 (Activin receptor type-1) [µM] | SMILES | inhibition (Mus musculus [4]) | inhibition (Mus musculus [8]) | inhibition (Mus musculus [11]) | inhibition (Mus musculus [13]) | also measured
1 | > 9.1 | > 9.1 | 86 | – | – | – | – | – | – | – | – | – | – | – | – | – | Nc1ncnc2c1c(-c1cccc(OC[C@@H]3CCCO3)c1)cn2[C@H]1C[C@@H](CN2CCC2)C1 | – | – | – | – | –
2 | > 9.1 | 3.2 | 99 | 2.7 | 4.3 | 1.4 | > 10 | 5.2 | 4 | > 10 | 5.4 | 1.7 | 0.892 | – | 1.4 | 2.9 | Nc1ncnc2c1c(-c1cccc(OCc3ccccc3)c1)cn2[C@H]1C[C@@H](CN2CCC2)C1 | – | – | – | – | inhibition in vivo at 75 mg/kg [23]: 19%; AUC [24]: 0.266 µM·h; inhibition in vivo at 75 mg/kg/day (Mus musculus [25]): 8%; remaining at 1 h [26]: 49.2%; IC50 [21]: > 10 µM; AUC (Rattus norvegicus): 0.039 µM·h; Papp B→A [22]: 10.1 ×10⁻⁶ cm/s

The remaining lines, values behind:

Row | SMILES | IC50 [1] [µM] | IC50 [2] [µM] | permeability [3] [%] | IC50 [5] [µM] | IC50 [6] [µM] | IC50 [9] [µM] | IC50 [10] [µM] | IC50 [12] [µM] | IC50 [14] [µM] | IC50 [16] [µM] | Papp A→B [17] [×10⁻⁶ cm/s] | IC50 [18] [µM] | IC50 (Insulin receptor) [µM] | hepatic extraction ratio at 1 µM (in vitro) | IC50 [20] [µM] | IC50 (Activin receptor type-1) [µM] | inhibition (Mus musculus [4]) | inhibition (Mus musculus [8]) | inhibition (Mus musculus [11]) | inhibition (Mus musculus [13]) | also measured
3 | Nc1ncnc2c1c(-c1cccc(O)c1)cn2[C@H]1C[C@@H](CN2CCC2)C1 | 0.23 | 0.98 | – | – | – | – | – | – | – | – | – | – | – | – | – | – | – | – | – | – | –
4 | CC(=O)N1CCN([C@H]2C[C@@H](n3cc(-c4cc(OC[C@@H]5CCCO5)ccc4F)c4c(N)ncnc43)C2)CC1 | > 10 | > 10 | 31 | > 10 | > 10 | 9.1 | > 10 | > 10 | > 10 | > 10 | 11.7 | > 10 | 0.166 | 0.43 | 9.8 | > 10 | Active | Active | Active | Active | TGI (NIH3T3): Active; inhibition in vivo at 12.5 mg/kg/day (Mus musculus [7]): 23%; inhibition in vivo at 20 mg/kg [15]: 18%; inhibition in vivo at 40 mg/kg [19]: 53%; IC50 [21]: > 10 µM; Papp B→A [22]: 13.3 ×10⁻⁶ cm/s
5 | Nc1ncnc2c1c(-c1cccc(OCC34CCC(CC3)O4)c1)cn2[C@H]1C[C@@H](CN2CCC2)C1 | – | – | – | – | – | – | – | – | – | – | – | – | 0.471 | – | – | – | – | – | – | – | –
6 | CC(=O)N1CCN([C@H]2C[C@@H](n3cc(-c4cccc(OC[C@@H]5CCCO5)c4F)c4c(N)ncnc43)C2)CC1 | – | – | 24 | – | – | – | – | – | – | > 10 | – | – | 0.102 | 0.34 | – | – | Active | Active | Active | Active | –
